Laboratory results published in publication PMC8514817, “De Novo Design of Antimicrobial Peptides With a Special Charge Pattern and Their Application in Combating Plant Pathogens” (Frontiers in Plant Science, 2021).
Where a SMILES comes first, the peptide text is derived from it. The star is where a group is joined. Myristoyl = CCCCCCCCCCCCCC(=O)*

Assays:
Pcc [1] = type: cell-based, Pectobacterium carotovorum subsp. carotovorum
Xcc Xcc17 = settings: Table 4, rich medium, up to 32 μg/ml; for MIC: 48 h, no visible growth; for MBC: spotted on rich agar 48 h, no colony
Atu C58C1 = settings: Table 4, rich medium, up to 32 μg/ml; for MIC: 48 h, no visible growth; for MBC: spotted on rich agar 48 h, no colony
Pcc [2] = settings: 48 h
Ech = settings: 48 h

Molecule	membranolytic effect (SYTOX Green staining) (Pcc [1])	MIC (Xcc Xcc17) [µg/mL]	MBC (Xcc Xcc17) [µg/mL]	MIC (Atu C58C1) [µg/mL]	MBC (Atu C58C1) [µg/mL]	MBC (Pcc [2]) [µg/mL]	MBC (Ech) [µg/mL]	MIC (Ech) [µg/mL]	MIC (Pcc [2]) [µg/mL]
CCCCCCCCCCCCCC(=O)N[C@@H](Cc1c[nH]c2ccccc12)C(=O)N[C@@H](CCCCN)C(=O)N[C@@H](CCCCN)C(=O)N[C@@H](CC(C)C)C(=O)N[C@@H](CCCCN)C(=O)N[C@@H](CCCCN)C(=O)N[C@@H](CC(C)C)C(=O)N[C@@H](CC(C)C)C(=O)N[C@@H](CCCCN)C(=O)N[C@@H](CCCCN)C(=O)N[C@@H](CC(C)C)C(=O)N[C@@H](CCCCN)C(=O)N[C@@H](CCCCN)C(=O)N[C@@H](CC(C)C)C(N)=O [pepD2M] (Myristoyl-WKKLKKLLKKLKKL-NH2)	significant membranolytic effect	–	–	–	–	–	–	–	–
Ac-WKKLKKLLKKLKKL-NH2 [pepD2]	significant membranolytic effect	1	1	2	2	16	–	–	–
Ac-WKKIKKIIKKIKKI-NH2 [pepI2]	–	–	–	–	–	2	16	16	2
Ac-WKKLKKLLKKL-NH2 [pepD3]	significant membranolytic effect	2	2	2	2	16	–	–	–
